Measurements published in paper PMC9729826, “Hypoaminoacidemia underpins glucagon-mediated energy expenditure and weight loss” (Cell Reports Medicine, 2022).
Starred links: 1 amine or outer side, 2 acyl side, 3 side chain; linkers in the order of their positions; H or OH if unused. Non-standard residues stand in square brackets, D forms with d. Residues, ends and D or L forms follow the SMILES beside them. Groups on a side chain read outwards from the residue. *: point of attachment. C18 diacid = O=C(O)CCCCCCCCCCCCCCCCC(=O)*; γGlu = O=C(O)[C@H](CCC(=O)[*:2])N[*:1]; Aib = CC(C)(N)C(=O)O

How the values were obtained:
Type in all cases: in vivo, mouse
C57BL/6 mice = test: Single-dose G108 EE and plasma amino acid study in metabolic cages; conditions: for plasma total amino acids after a single injection / energy expenditure after a single injection: mice on SP diet
Experimental: Lean 10-week-old C57BL/6 mice (N = 20) were provided ad libitum a 60 kcal% high fat diet (diet D12492, Table S2) for 10 days. They were then switched to either a standard protein high fat diet (D08091803) or a high protein high fat diet (D08091801) (N = 10/group) for 1 week prior to commencing the study. All mice were then placed into metabolic cages, individually housed, and allowed to acclimatise for 24 h. On day 2, baseline metabolic readings were obtained prior to single dose administration of 7.5 nmol/kg G108 on day 3 at 9 am. Metabolic readings were subsequently obtained over the following 48 h prior to single dose administration of 20 nmol/kg G108 on day 5. On day 8, all mice were removed from the metabolic cages and returned to their home cages. A parallel study was then carried out whereby venous blood samples were collected at baseline and daily following single dosing with either 7.5 nmol/kg or 20 nmol/kg G018. Blood samples were transferred on ice immediately for centrifugation as previously described. Samples were stored at −80°C prior to measurement of plasma total amino acids.
To measure energy expenditure, DIO mice were placed into a Comprehensive Laboratory Animal Monitoring System (CLAMS, Columbus instruments, Columbus, US). Measurement of oxygen consumption and carbon dioxide production was taken at 20 min intervals. Food intake was also measured electronically without the need to remove food. Each cohort of mice were placed into the CLAMS system with daily weighing of body weight prior to administration of the allocated treatment at 9 am. Following administration of treatment, mice were placed back into the metabolic cages with ad libitum access to their allocated diet. For studies with the low amino acid (LAA) diet in metabolic cages, animals were not removed from the metabolic cages until the end of the experiment and had ad libitum access to either standard protein or low amino acid diets. Feed efficiency was calculated as mg body weight change per kJ consumed.
(§1) Plasma total amino acids were measured using fluorometric-based ELISA kits as described (MAK002, Sigma-Aldrich, Ab65347, Abcam). Plasma FGF21 was measured using a fluorescent based ELISA kit (ab229382, Abcam). Plasma triglyceride, cholesterol and leptin were measured using ELISA kits (ab65336, ab65390, ab199082, Abcam). Individual amino acids were measured using Gas Chromatography/Mass Spectrometry (WellChild laboratory, Evelina Children’s Hospital, St Thomas’s Hospital, London).

Gcgr^Δliver mice = test: Chronic study in hepatic-specific glucagon receptor knockout mice; conditions: 5 nmol/kg s.c. daily, 14 days, n = 7-8/group
Experimental: Age-matched (12-week-old) Gcgr^flox/flox:Alb-Cre + (Gcgr^Δliver) and Gcgr^flox/flox:Alb-Cre- (control) mice were subcutaneously administered daily with either 5 nmol/kg G108 or vehicle control (HPLC water) for 14 days (N = 7–8/group). All mice were single-housed and had ad libitum access to water and a standard (20 kcal%) protein diet (diet D11112201, Table S2). Food intake and body weight were measured daily prior to administration of peptide each day. EchoMRI analysis was carried out at baseline and day 14. Tail venesection was carried out 4-h post-dose on day 14. Blood samples were immediately transferred on ice, centrifuged at 2800 × g for 10 min prior to plasma total amino acid analysis.
Food intake was measured daily using a dedicated weighing scale and topped up accordingly. Body weight was recorded at 9 am daily or every 48 h using the same weighing scale. Body composition was measured using an EchoMRI analyser at various timepoints during chronic studies. […] Each scan lasted approximately 90 s where lean mass and fat mass were recorded in grams. […]
as §1, with “Individual amino acids were measured using Gas Chromatography/Mass Spectrometry (WellChild laboratory, Evelina Children’s Hospital, St Thomas’s Hospital, London).” left out

lean C57BL/6 mice [1] = test: Chronic low-dose (5 nmol/kg) G108 study in lean mice; conditions: 5 nmol/kg s.c. daily
Experimental: For the low-dose G108 (5 nmol/kg) study, C57BL/6 mice matched for weight and age (14-week-old, N = 14) were single housed and split into two treatment groups (N = 7/group). All mice were subcutaneously administered with the allocated treatment daily at 9 am for 21 days. Mice were administered with vehicle control (HPLC water) or 5 nmol/kg G108 (diluted in sterile HPLC water). All mice had ad libitum access to a standard protein diet containing 20 kcal% protein (diet D11112201) (Table S2). Food intake and body weight were measured daily prior to treatment each day. EchoMRI analysis was carried out at baseline and days 7, 14 and 21. Tail venesection was carried out on day 7 of study, pre- and 4 h post treatment dose. Blood samples were immediately transferred on ice, centrifuged at 2800 × g for 10 min prior to plasma total amino acid analysis. Forelimb grip strength testing was performed at baseline, day 14 and day 21. On day 21, following a 4 h fast, mice were culled, and the following muscle groups dissected and weighed: quadriceps, gastrocnemius, soleus, tibialis anterior, extensor digitorum longus.
(§2) Food intake was measured daily using a dedicated weighing scale and topped up accordingly. Body weight was recorded at 9 am daily or every 48 h using the same weighing scale. Body composition was measured using an EchoMRI analyser at various timepoints during chronic studies. Body composition measurements were taken on the same time of day to reduce intra-animal variability. Animals were placed in a transparent cylindrical Perspex tube and both ends secured with Perspex clips. The tubes containing the animal was then carefully placed into the MRI machine (EchoMRI −100H analyser, EchoMRI). Each scan lasted approximately 90 s where lean mass and fat mass were recorded in grams. Following the scan, the mice were removed from the Perspex tube and returned to their respective cages.
A grip strength meter (Bioseb, France) was used to measure grip strength. […] The maximum force, measured in g was recorded. Four consecutive measurements were made with a 1 min rest interval. An average of measurements was taken for each timepoint prior to subsequent analysis.
as §1

lean C57BL/6 mice [2] = test: 18-day dose-finding study of food intake in lean mice
Experimental: C57BL/6 mice matched for weight and age (14-week-old, N = 24) were administered via subcutaneous injection at 9 am daily for 18 days, vehicle control or G108 diluted in sterile HPLC water. Ascending doses of either 5 nmol/kg, 10 nmol/kg or 20 nmol/kg G018 were administered. All mice had ad libitum access to RM1 diet (Special Diet Services, UK) and water. Food intake and body weights were recorded daily.
as §2

SMILES: CC[C@H](C)[C@H](NC(=O)[C@H](Cc1ccccc1)NC(=O)[C@H](CCC(=O)O)NC(=O)[C@H](CCC(N)=O)NC(=O)[C@H](C)NC(=O)[C@H](CCCNC(=N)N)NC(=O)[C@H](CCCCN)NC(=O)[C@H](C)NC(=O)[C@H](CC(=O)O)NC(=O)[C@H](CC(C)C)NC(=O)[C@H](Cc1ccc(O)cc1)NC(=O)[C@H](CCCNC(=N)N)NC(=O)[C@H](CO)NC(=O)[C@H](Cc1ccc(O)cc1)NC(=O)[C@H](CC(=O)O)NC(=O)[C@H](CO)NC(=O)[C@@H](NC(=O)[C@H](Cc1ccccc1)NC(=O)[C@@H](NC(=O)CNC(=O)[C@H](Cc1c[nH]cn1)NC(=O)C(C)(C)NC(=O)[C@@H](N)Cc1c[nH]cn1)[C@@H](C)O)[C@@H](C)O)C(=O)N[C@@H](CCC(=O)O)C(=O)N[C@@H](Cc1c[nH]c2ccccc12)C(=O)N[C@@H](CC(C)C)C(=O)N[C@@H](CC(C)C)C(=O)N[C@@H](CCC(N)=O)C(=O)N[C@@H](CO)C(=O)N[C@@H](Cc1c[nH]cn1)C(=O)N[C@@H](Cc1c[nH]cn1)C(=O)N[C@@H](CCC(N)=O)C(=O)N[C@@H](Cc1c[nH]cn1)C(=O)N[C@@H](Cc1c[nH]cn1)C(=O)N1CCC[C@H]1C(=O)N[C@@H](CO)C(=O)N1CCC[C@H]1C(=O)N1CCC[C@H]1C(=O)N1CCC[C@H]1C(=O)N[C@@H](CCCCNC(=O)[C@H](CC(N)=O)NC(=O)CC[C@H](NC(=O)CCCCCCCCCCCCCCCCC(=O)O)C(=O)O)C(N)=O [Peptide G108] (H-H[Aib]HGTFTSDYSRYLDAKRAQEFIEWLLQSHHQHHPSPPPK([Asn-γGlu-C18 diacid])-NH2; N-terminus and C-terminus assumed)
- plasma total amino acids after a single injection (C57BL/6 mice; single 7.5 nmol/kg dose, n = 10/group): transient reduction in plasma amino acids
- energy expenditure after a single injection (C57BL/6 mice; single 7.5 nmol/kg dose, up to 48 h, n = 10/group): trend toward increased EE
- plasma total amino acids after a single injection (C57BL/6 mice; single 20 nmol/kg dose, n = 9-10/group): sustained reduction in plasma amino acids
- energy expenditure after a single injection (C57BL/6 mice; single 20 nmol/kg dose, up to 72 h, n = 9-10/group): significantly increased EE response
- hypoaminoacidemia and EE in mice fed the HP diet (C57BL/6 mice; single 7.5 and 20 nmol/kg doses, HP diet): protected against G108-stimulated hypoaminoacidemia and EE at both doses
- effects on body weight, lean mass and plasma amino acids in mice lacking the hepatic GCGR (Gcgr^Δliver mice): completely refractory
- body composition (lean mass, EchoMRI) (lean C57BL/6 mice [1]; 21 days, n = 7/group): reduced lean mass
- body weight gain compared with vehicle (lean C57BL/6 mice [1]; 21 days, n = 7/group): prevented weight gain
- plasma total amino acids (lean C57BL/6 mice [1]; day 7, n = 7/group): sustained reduction in plasma amino acids
- weight of the quadriceps and gastrocnemius muscles (lean C57BL/6 mice [1]; day 21, n = 7/group): reduced
- forelimb grip strength (lean C57BL/6 mice [1]; days 14 and 21, n = 7/group): reduced
- food intake (lean C57BL/6 mice [2]; 5 nmol/kg s.c. daily): no effect on food intake
- food intake (lean C57BL/6 mice [2]; 10 nmol/kg s.c. daily, 18 days, n = 6/group): sustained reduction in food intake
- food intake (lean C57BL/6 mice [2]; 20 nmol/kg s.c. daily, 18 days, n = 6/group): sustained reduction in food intake
